Laboratory results published in patent publication US6372776B1, “Crystalline(−)-3R,4R-trans-7-methoxy-2,2-dimethyl-3-phenyl-4-{4-[2-(pyrrolidin-1-yl)ethoxy]phenyl}chromane, hydrogen maleate” (Novo Nordisk A/S, priority 1997, dated 2002).

Legend:
[1] = solubility in water; assay type: physicochemical
[2] = hygroscopicity; assay type: physicochemical
[3] = bioavailability
[4] = stability characteristics

Molecule	solubility in water [1]	hygroscopicity [2]	bioavailability [3]	stability characteristics [4]
COc1ccc2c(c1)OC(C)(C)C(c1ccccc1)[C@@H]2c1ccc(OCCN2CCCC2)cc1 (single isomer, unassigned; (-)) [free base, (−)-3R,4R-trans-7-methoxy-2,2-dimethyl-3-phenyl-4-{4-[2-(pyrrolidin-1-yl)ethoxy]phenyl}chromane]	very poor	–	–	–
(−)-3R,4R-trans-7-methoxy-2,2-dimethyl-3-phenyl-4-{4-[2-(pyrrolidin-1-yl)ethoxy]phenyl}chromane, hydrogen maleate [hydrogen maleate salt]	–	non-hygroscopic	good	good
